Measured values taken from patent publication US9872853B2, “2,3-dihydro-1H-indole compounds” (Eli Lilly and Company, priority 2016, dated 2018).
Where “and” joins values, the source holds several entries; their conditions need not be identical. Identical values can stand only once. Like-named read-outs stand apart in the source and are kept apart here.

Assays:
[1] = system: L55 tumors; assay: L55 humanized tumor model with hPBMC challenge; type: in vivo; details: for tolerability (body weight): with or without hPBMCs
Excerpt: Grow the human NSCLC cell line, L55, in RPMI 1640 medium supplemented with 10% fetal bovine serum. Harvest sub-confluent cells with trypsin and rinse twice with growth medium lacking serum. Initiate the growth of subcutaneous tumors by injecting 5×10^6 in a 1:1 mixture of HBSS and MATRIGEL® (BD Biosciences, Franklin Lakes, N.J.) in the rear flank of NOD.Cg-Prkdc^scidI12rg^tm1Wjl/SzJ mice more commonly known as NOD scid gamma chain knockout mice (NSG) mice (The Jackson Laboratory, Bar Harbour, Me.), which lack T cells, B cells, NK cells, and are deficient in cytokine signaling. When the mean tumor volume reaches approximately 200-300 mm^3, randomize the animals by tumor size and body weight and place into their respective treatment groups as indicated. After randomization, challenge tumor-bearing mice with PBS alone (no PBMCs) or with PBS containing 1×10^7 human PBMCs into the tail vein of recipients.
(§1) Capture tumor size and body weight using Study Director. Estimate tumor volume (V) by using the formula: V=0.536×L×W^2 where L=larger measured diameter and W=smaller of the perpendicular diameter. Transform the tumor volume data to a log scale to equalize variance across time and treatment groups. Analyze the log volume data with a two-way repeated measures analysis of variance by time and treatment using the MIXED procedures in SAS software (Version 9.2). The correlation model for the repeated measures is Spatial Power. Compare treated groups to the control group at each time point. Use the MIXED procedure also separately for each treatment group to calculate adjusted means and standard errors at each time point. Both analyses account for the autocorrelation within each animal and for the loss of data that occurs when animals with large tumors are removed from the study early. Calculate relative changes in tumor volume (% T/C) using the tumor volume measurements taken nearest to the last day of dosing with Example 1A, using the formula % T/C=100×ΔT/ΔC, where T=mean tumor volume of the compound treated group, ΔT=mean tumor volume of the compound treated group minus the mean tumor volume on the baseline day, C=mean tumor volume of the control (vehicle) group, and ΔC=mean tumor volume of the control group minus the mean tumor volume on the baseline day. If ΔT<0, then a tumor regression value is calculated instead of % T/C whereby % Regression=100×ΔT/Tinitial such that Tinitial=mean tumor volume on the baseline day.
(§2) Assess antitumor efficacy of Example 1A and LY3300054 alone, or in combination by measuring tumor volume by three dimensional caliper measurements twice a week during the course of the study. Measure body weight twice weekly during the course of the study, as a general indicator of tolerability.
(§3) Formulations for Example 1A and LY3300054: Formulate Example 1A on a weekly basis in 1% HEC/0.25% Tween 80/0.05% Antifoam and store at 4° C. Solublize LY3300054 in phosphate buffered saline and store at 4° C.
Control group(s): For single agent efficacy studies, administer vehicle for Example 1A alone. For combination studies, administer both vehicles used for Example 1A and LY3300054 according to the same schedule for each compound, respectively. For monotherapy groups in combination efficacy studies, treat the animals with the desired compound and the vehicle for the compound not being dosed following the schedule for the non-dosed compound. […]

[2] = system: Colon26 tumors; assay: Mouse syngeneic Colon26 model for colon cancer; type: in vivo, BALB/c mice
Method: Grow the mouse BALB/c-derived Colon26 colon cancer cell line in RPMI 1640 medium supplemented with 10 mM HEPES, […] sodium pyruvate, and 10% fetal bovine serum. Harvest sub-confluent cells with trypsin and rinse twice with complete growth medium lacking serum. Initiate subcutaneous tumors by injecting 1×10^6 cells resuspended in HBSS in the rear flank of immune-competent BALB/c mice (Envigo, Indianapolis, Ind.). Six days after tumor implantation, randomize animals based on body weight and place into their respective treatment groups using the number of animals per group as indicated.
as §1, §2, §3
Control group(s): For single agent efficacy studies, administer vehicle for Example 1A alone. For combination studies, administer both vehicles used for Example 1A and LY3300054 according to the same schedule for each compound, respectively. For monotherapy groups in combination efficacy studies, treat the animals with the desired compound and the vehicle for the compound not being dosed following the schedule for the non-dosed compound.
Treat female BALB/c mice (n=10) bearing Colon26 tumors with Example 1A twice daily for 21 days by oral gavage at doses of 10, 50, and 100 mg/kg. Start administration of Example 1A six days after tumor implantation, and monitor tumor growth and body weight twice a week for the duration of the treatment period.

[3] = target: T1, His6-IDO1 (Homo sapiens, UniProt P14902); assay: Binding assay for IDO1: competition with a tritiated spy molecule; details: displacement of 50 nM tritiated spy molecule, four hours, room temperature
T1 construct: purchased Proteros PR-0278
Method: Specifically, this assay assesses the ability of test compounds to compete with a tritiated spy molecule 1-(2,4-difluorophenyl)-3-[[1-(3,4,5-tritritiobenzoyl)indolin-5-yl]methyl]urea and allows for the calculation of the binding affinity, IC50.
Competitive Binding of 1-(2,4-Difluorophenyl)-3-[[1-(3,4,5-tritritiobenzoyl)indolin-5-yl]methyl]urea to IDO1
Load 300 nM His6-IDO1 (Proteros, SwissProtID P14902, Cat# PR-0278, batch 19/59, 98 mg/mL in 25 mM MES pH 6.5, 150 mM KCl, purity >95%) diluted in DPBS to each well of nickel coated plate (Sigma, Cat#55563) and incubate overnight at 4° C. Remove unbound proteins by washing plate with 300 μL DPBS four times in BIOTEK® Microplate Washer. Add 100 μL of blocking buffer (0.05% TWEEN® 20/DPBS) per well and incubate for one hour at room temperature to reduce nonspecific binding. While blocking the plate, prepare 50 nM 1-(2,4-difluorophenyl)-3-[[1-(3,4,5-tritritiobenzoyl)indolin-5-yl]methyl]urea (Biocair, Cat# TRQ41455) by diluting in DPBS, and serially dilute unlabeled stock solution 2.5-fold in DMSO to generate an eleven point dilution curve. […] Quantitate total bound and nonspecific binding (NSB) of the 1-(2,4-difluorophenyl)-3-[[1-(3,4,5-tritritiobenzoyl)indolin-5-yl]methyl]urea ligand using a Trilux Microbeta Counter. […]

[4] = target: T2, IDO1 activity in SKOV3 (Homo sapiens, UniProt P14902); assay: Kynurenine production assay (SKOV3); type: cell-based; details: SKOV3 cells, 18 hours, MS measurement in media
T2 construct: an ovarian cancer cell line that intrinsically expresses IDO1; host or cells: SKOV3 (in vitro); SKOV3X (Indiana University Research and Technology Center) as intraperitoneal xenograft tumours in athymic nude mice
Method: The purpose of this assay is to evaluate the inhibition of the production of kynurenine, N-formyl-kynurenine and the depletion of tryptophan in IDO1 expressing cancer cells and assess whether compounds are overtly toxic to these cells. Exemplary compounds are tested for the inhibition of IDO1 activity in SKOV3 (ATCC, Cat# HTB-77), an ovarian cancer cell line that intrinsically expresses IDO1. Due to IDO1 expression, SKOV3 cells degrade tryptophan with the concomitant production of kynurenine and compounds are tested for their ability to inhibit the production of kynurenine, N-formyl-kynurenine and the depletion of tryptophan. Optionally, overt toxicity of compounds can be assessed by monitoring cell viability.
Plate SKOV3 cells, an IDO1-expressing ovarian cancer cell line, at 20,000 cells per well in 100 μL of McCoys 5A media (Gibco, Cat#16600-082) supplemented with non-essential amino acids (Gibco, Cat#11140-050), 1 mM sodium pyruvate (Gibco, Cat#11360-070), and 10% fetal bovine serum, complete media, in a 96 well tissue culture plate (BD Biosciences). Then, incubate cells for 16 hours in a 37° C. incubator with 5% CO2. […] Optionally, return original plate(s) to the incubator for an additional 24 hours and measure the viability of cells by adding an equal volume of CELLTITER-GLO® (Promega) and measure luminescence in an PERKIN ELMER® EnVision plate reader. […]

T1 sequence (P14902 whole entry): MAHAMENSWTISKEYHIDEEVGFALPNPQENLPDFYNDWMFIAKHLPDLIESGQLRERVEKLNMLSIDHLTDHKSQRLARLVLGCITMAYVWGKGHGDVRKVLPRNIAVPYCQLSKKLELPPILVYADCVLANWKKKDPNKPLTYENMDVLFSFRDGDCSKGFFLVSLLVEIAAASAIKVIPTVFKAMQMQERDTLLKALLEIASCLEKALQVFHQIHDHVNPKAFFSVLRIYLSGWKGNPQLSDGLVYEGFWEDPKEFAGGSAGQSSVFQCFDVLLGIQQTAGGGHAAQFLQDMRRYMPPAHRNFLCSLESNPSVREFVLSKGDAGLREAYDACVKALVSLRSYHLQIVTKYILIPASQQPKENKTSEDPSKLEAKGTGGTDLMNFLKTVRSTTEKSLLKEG
T2 sequence (P14902 whole entry): as above

Compound	tumor growth inhibition ([1]; 75 mg/kg twice daily oral, absence of hPBMCs, versus vehicle without PBMCs)	tolerability (body weight) ([1]; 75 mg/kg twice daily oral)	reduction in body weight compared to baseline ([2]; 10 mg/kg twice daily, day 20) [%]	reduction in body weight compared to baseline ([2]; 50 mg/kg twice daily, day 20) [%]	reduction in body weight compared to baseline ([2]; 100 mg/kg twice daily, day 20) [%]	tolerability (body weight changes) ([2]; 10, 50 and 100 mg/kg twice daily for 21 days, versus vehicle-treated mice)	tumor growth inhibition (statistics) ([2]; only 50 and 100 mg/kg doses, day 20)	IC50 [3]	IC50 ([4]; read-out: IC50 for inhibiting N-formyl-kynurenine) [nM]	IC50 ([4]; read-out: IC50 for inhibiting kynurenine) [nM]	effect on tumor growth ([1]; 10 mg/kg intraperitoneal once a week for 4 weeks, with hPBMCs, versus vehicle)	change in tumor volume (% T/C) ([1]; 10 mg/kg intraperitoneal once a week, with hPBMCs, day 37, versus vehicle lacking PBMCs) [%]	tolerability (body weight) ([1]; 10 mg/kg intraperitoneal once a week)
C[C@@H](NC(=O)c1ccc(F)cc1)c1ccc2c(c1)CCN2C(=O)C1CCOCC1 (single isomer, unassigned) [Example 1A]	did not result in significant tumor growth inhibition	No significant tolerability issues	2.5	8	2.5	no significant tolerability issues	statistically (p<0.001) relevant growth inhibition	< 1500 nM and 33 nM	7	7			
C[C@H](NC(=O)c1ccc(F)cc1)c1ccc2c(c1)CCN2C(=O)C1CCOCC1 (single isomer, unassigned; isomer 2) [Example 1B]								< 1500 nM					
LY3300054: an antibody that binds human PD-L1 (SEQ ID NO: 1), comprising a light chain (LC) and a heavy chain (HC)											statistically significant tumor growth inhibition	75.7	No significant tolerability issues
